Laboratory results from a melting point compilation (Tetko et al.; mined from patent text by program, amines drawn as free bases though some values may be those of a salt).

Row | melting point [°C] | SMILES
1 | 152 to 153 | Cc1cc(C)c(Nc2nc(C)ccc2S(=O)(=O)c2ccc(OCCCO)cc2)c(C)c1
2 | 105 to 107 | CCCCc1nc2ccccn2c(=O)c1-c1ccc(Cl)cc1C
3 | > 268 | O=C1CCCN1c1cnc2cnc(-c3ccc(O)cc3)nc2c1
4 | 240 to 242 | COc1c(N2CC(C)C(NC3CC3)C(C)C2)c(F)cc2c(=O)c(C(=O)O)cn(C3CC3)c12 (centres undefined)
5 | 70 to 71 | COc1ccccc1N1CCN(C(=O)OC(C)(C)C)CC1
6 | 169 to 171 | CCOc1c(OC)cc(COc2ccc(N)nn2)cc1OC
7 | 187 to 188 | CCC(CC)NC(=O)Nc1cc(-c2c(-c3ccc(F)c(C)c3)nc3cccnn23)ccn1
8 | 92 to 93 | CCCCc1c(C(=O)OCC)sc2ccc([N+](=O)[O-])cc12
9 | 182 to 184 | O=C1N(C(c2ccccc2)c2ccccc2)c2ccccc2C12COc1ccc(F)cc12 (centres undefined)
10 | 116 to 118 | CCN(C)c1nc2sc3c(NCc4ccco4)ncnc3c2c2c1CCC(C)(C)C2
11 | 116 to 117 | CC1(C)OC(=O)C(c2ccc3sccc3c2)O1 (single isomer, unassigned; (-))
12 | 137 to 139 | Fc1ccc(CNC(=S)N2CCc3c([nH]c4ccccc34)C2c2ccc3c(c2)OCO3)cc1 (centres undefined)
13 | 86 to 88 | Cc1ccc(CN2CC=C(/C=C/c3cccc(Cl)c3)CC2)cc1
14 | 233 to 235 | CC(O)c1cc2c(s1)S(=O)(=O)CCc1cc(=O)n(-c3ccc(Cl)cc3)nc1-2 (centres undefined)
15 | 233 | O=C(N[C@H]1CC[C@H](CCN2CCC(c3cccc4c3CCO4)CC2)CC1)c1ccc2c(c1)OCO2
16 | 124 to 126 | COc1ccc(Cl)cc1NC(=O)C1CCNCC1
17 | 133 to 134 | Cc1oc(-c2ccccc2)nc1COc1ccc(COc2nn(Cc3ccccc3)cc2C=O)cc1

Row | melting point [°C] | SMILES
18 | 148 to 150 | Cc1cc(-c2cc(C(F)(F)F)nn2-c2ccc(S(C)(=O)=O)cc2)ccc1-c1cocn1
19 | 192 to 193 | Oc1ccc2c(c1)CCCC(c1ccccc1)=C2c1ccc(OCCCCCI)cc1
20 | 189 | COc1nc(C)nc(NC(=O)NS(=O)(=O)c2c(C)csc2C)n1
21 | 159 to 160 | COC1CC(NC(=O)C(F)(F)F)C(OCc2ccccc2)C(C)O1 (centres undefined)
22 | > 250 | NCc1ccc(N2CCN(c3ccc(OCC(=O)O)cc3)C2=O)cc1
23 | 117 to 118 | CC1(c2cccc(NS(C)(=O)=O)c2)C2CN(Cc3ccccc3)CC21 (centres undefined)
24 | 243 to 245 | O=C1NC(Cc2ccc([N+](=O)[O-])c(OCc3ccccc3)c2)C(=O)Nc2ccccc21 (centres undefined)
25 | 187 to 188 | CCn1ncc2c3onc(-c4cccc(O)c4)c3cnc21
26 | 127 to 129 | CCCC(=O)N(CC)c1cccc(-c2ccc3nnc(C)n3n2)c1
27 | 268 to 270 | O=C(NCc1ccc(Cl)cc1)c1cnc2c(F)cc(I)cc2c1O
28 | 203 to 204 | Clc1ccc(C2=Nc3cccnc3Nc3ccccc32)cc1
29 | 273 to 274 | CCCn1c(=O)c2[nH]c(/C=C/c3ccc(OC)cc3OC)nc2n(CCC)c1=O
30 | 260 to 263 | COc1cc2cnc(O)nc2cc1OC
31 | 148 | COc1ccc(C(=O)c2cc3ccccc3o2)c(Cl)c1Cl
32 | 194 | COc1ccc(N2CN(C)CNC2=S)cc1
33 | 217 to 220 | O=C(c1ccc(C(F)(F)F)cc1O)N1CCN(c2ccc(OC[C@H]3CCn4cc([N+](=O)[O-])nc4O3)cc2)CC1
34 | 106 to 108 | CC1(C)CON(Cc2ccc(N)cc2Cl)C1=O

Continued, molecule first:

Row | SMILES | melting point [°C]
35 | COc1ccc(C2(c3ccc(OC)cc3)CCN(C[C@H]3CN(C)[C@@H]4Cc5c[nH]c6cccc(c56)[C@@]4(OC)C3)CC2)cc1 | 215 to 222
36 | CC(NC(=O)c1ccc(NC(=O)c2ccccc2SSc2ccccc2C(=O)Nc2ccc(C(=O)NC(C)C(=O)O)cc2)cc1)C(=O)O (centres undefined) | 265
37 | CCCCCCN(C[C@H]1CCC[C@H](CN(CCCCCC)C(=O)Nc2ccc(N(C)C)cc2)C1)C(=O)Nc1ccc(N(C)C)cc1 (relative stereo) | 121 to 125
38 | O=C(O)[C@@H]1Cc2ccccc2C[C@H]1C(=O)O (relative stereo) | 229 to 232
39 | c1ccc(COCCNc2ccc(Nc3ncnc4cc(-c5ccccc5)sc34)cc2)cc1 | 201 to 203
40 | N#Cc1ccc2oc(-c3ccc(O)cc3)cc(=O)c2c1 | 296 to 298
41 | CCCCOc1ccc(S(=O)(=O)N2CC(NCC(O)c3ccc(O)c(NS(C)(=O)=O)c3)C2)cc1 (centres undefined) | 67 to 70
42 | O=C(O)COc1ccccc1OCCC(c1ccccc1)(c1ccccc1)c1ccccc1 | 137 to 139
43 | CCOC(=O)C1=Cc2cc(-c3ccc(Cl)cc3)ccc2OCC1 | 131 to 134
44 | CN(C)CCOc1ccc(C=O)c(O)c1 | 82 to 83
45 | NS(=O)(=O)c1cc(C(=O)O)cc(NCc2ccccc2)c1Sc1ccccc1 | 224 to 225
46 | CCCCc1nc(C(C)=O)c(C#N)n1Cc1ccc(-c2ccccc2C(=O)O)cc1 | > 55
47 | CNc1cc(F)c(C#N)cc1F | 160 to 163
48 | O=C(O)c1cnn2c(C(F)F)cc(-c3ccc(C(F)(F)F)cc3)nc12 | 261
49 | Cc1cc(-c2c(-c3ccc(S(N)(=O)=O)cc3)cnn(-c3cccc(Cl)c3)c2=O)ccc1F | 187 to 188
50 | O=S1(=O)c2cccc3cccc(c23)N1CCCN1CC=C(c2c[nH]c3ccc(Cl)cc23)CC1 | 189
51 | CCCc1nc2c(N)nc(C)c(C)c2n1CCCCN1CCCS1(=O)=O | 155 to 161
52 | Cc1c(C)c(N2CCN(c3ccc(S(C)(=O)=O)cc3)CC2)c(C)c2c1OC(C)(C)C2 | 256 to 260
53 | O=C1NCCCN1CCCN(Cc1ccccc1)CC1CCc2ccccc2O1 (centres undefined) | 94.7
54 | C=C(CNc1ccc2ncnc(Nc3cccc(Br)c3)c2c1)C(=O)OC | 157 to 162

Row | SMILES | melting point [°C]
55 | Cc1nc2cc(C(C)C)ccc2n1C | 130 to 131
56 | COc1cc(C(=O)OCC2(N(C)C)CCCc3sccc32)cc(OC)c1OC (centres undefined) | 82 to 83
57 | O=Cc1nccnc1OCc1ccccc1 | 69.4
58 | O=c1c(CCCc2ccccn2)cc2cccnc2n1-c1ccc2nsnc2c1 | 170
59 | O=C(O)CCc1ccc2ccccc2c1Br | 116 to 119
60 | NCC(CCO)c1ccc(Cl)c(Cl)c1 (single isomer, unassigned; (+)) | 80 to 81
61 | CSc1ccc(-c2cc3ncn([C@H](C)[C@](O)(Cn4cncn4)c4ccc(F)cc4F)c(=O)c3s2)cc1 | 223 to 224
62 | CCOC(=O)C=Cc1ccc(-n2ccnc2)cc1 | 96 to 97.5
63 | COC(C)=CC(=O)Nc1cccc(OC(=O)NC2CCCCC2)c1 | 200
64 | CC(=O)Oc1cc2c(s1)CCN(C(C(=O)C1CC1)c1ccccc1F)C2 (centres undefined) | 120 to 122
65 | CC1CCN(C(=O)Oc2ccccc2-c2ccccc2)CC1 | 85 to 86
66 | CN1CCCCC1CCn1nc(-c2c(-c3ccccc3)nn3ccccc23)ccc1=O (centres undefined) | 114 to 116
67 | CCCCCCSC1c2cccc(O)c2C(=O)c2c(O)cccc21 | 49 to 50
68 | CCc1ccc2c(c1)c(-c1ccccc1Cl)c(NC(=O)Nc1c(C)cccc1C(C)C)c(=O)n2C | 198 to 199
69 | COc1ccc([N+](=O)[O-])c(C2OCCO2)c1OC | 74 to 76
70 | O=C1CCN(c2ccc(C(=O)O)cc2)CCN1 | 285 to 286
71 | CCC(CO)Nc1nc(NCc2ccccc2N)c2ncn(C(C)C)c2n1 (racemic) | 149 to 151
72 | Nc1ccc2c(c1)c(=O)[nH]c(=O)n2CCCCN1CCC(OC(c2ccccc2)c2ccccc2)CC1 | 131 to 133
73 | CCc1nnc2cc(C)c(-c3ccc(C(N)=O)cc3)nn12 | 210 to 213
74 | Cc1cccc(N(C)C(=O)NC2N=C(c3ccccc3F)c3ccccc3N(CC(=O)N3CC4CCC(CC4)C3)C2=O)c1 (racemic) | 207 to 212

Row | SMILES | melting point [°C]
75 | CC(C)(C)OC(=O)c1ccc([N+](=O)[O-])c(CBr)c1 | 61 to 65
76 | CC(C)(C)OC(=O)COC1CCN(CC2CN(c3ccc(CN)cc3)C(=O)O2)CC1 (centres undefined) | 95 to 96
77 | CC1(C)N=C(c2ccccc2F)c2cc([N+](=O)[O-])cc(Br)c2NC1=O | 164
78 | CCCCCCOC(=O)CCCC(C)(C)c1cc(O)c(C(C)(C)CCCC(=O)OCCCCCC)cc1O | 77 to 78
79 | O=C1NC(=O)C(CC#Cc2ccc(Cl)cc2)(S(=O)(=O)c2ccccn2)S1 (centres undefined) | 140 to 141
80 | Cc1cc(C(F)(F)F)nn1CC(=O)N1CCC(c2nc(NC(=O)C3CCCc4ccccc43)cs2)CC1 (centres undefined) | 179 to 181
81 | N=C(Nc1ccccc1-c1ccccc1)C1CCCCC1 | 148 to 150
82 | CC(C)(C(=O)O)C(=O)NCc1cn(C(c2ccccc2)(c2ccccc2)c2ccccc2)cn1 | 174 to 175
83 | CC(C)S(=O)(=O)n1cc(-c2ccc(Oc3ccccc3)cc2)c2c(N)ncnc21 | 162
84 | Cc1cc(Cl)ccc1Cn1nc(OC(C)C)cc1CCCOc1nn(Cc2ccccc2)cc1CC(=O)O | 81 to 82
85 | CNC1(c2ccccc2)CCN(C(c2ccccc2)(c2ccccc2)c2ccccc2)CC1 | 125
86 | CCCNC(=O)c1nc(-c2ccccc2)c(-c2ccc(=O)n(Cc3ccccc3)n2)s1 | 120 to 121
87 | CCc1cc2ccccc2c(=O)o1 | 69
88 | CCCC1Sc2ccc(F)cc2C=C1c1ccc2c(c1)NC(=O)CO2 (centres undefined) | 161 to 162
89 | NS(=O)(=O)c1ccc(-c2cn(-c3nc(-c4ccc(Cl)cc4)cc(C(F)(F)F)n3)cn2)s1 | 284
90 | N=c1sc2cc(OC(F)(F)F)ccc2n1CCSCCCC(=O)c1ccccc1 | 72
91 | Clc1ccc(N2CCN(Cc3coc4cccnc34)CC2)cc1 | 128 to 129
92 | CCCc1c(C(=O)C2CC2)c2ccc(C(N)=O)cc2n1Cc1ccccc1Cl | 162 to 164
93 | C/C(=C\c1ccc(C(=O)OCc2ccccc2)cc1)c1ccc2c(c1)C(C)(C)CCC2(C)C | 113 to 114
94 | CCn1c(C(=O)c2cc(C)cc(CCC#N)c2)c(C(C)C)c(=O)[nH]c1=O | 173 to 174
